Values after ≈ are worked out from the molar mass of the structure shown. Where two headings read alike, the source gives them in different places.
Columns and labels:
Test in all cases: microbe, parasite or virus in culture
[1] = system: C. albicans wild-type; design: species or system whole yeast cells; macro tube broth dilution MIC in YEPD at 30 C, visual clearness of medium; conditions: Candida albicans, 48 h, read-out: MIC
Protocol: (§1) Standard YEPD (Yeast Extract, Peptone, Dextrose) ([Sherman, 1990]), YEPD+S (YEPD with 1.2M sorbitol), YES (Yeast Extract, Dextrose and Supplements of Adenine, Histidine, Leucine, Uracil and Lysine) ([Alfa et al., 1993]) and YES+S (YES with 1.2 M sorbitol) ([Ribas et al., 1991]; [Ishiguro et al., 1997]), media were used for determination of MIC values of the tested compounds. A stock solution of 10 mg/ml of each tested compounds was prepared in DMSO and serial dilutions in DMSO were prepared. The final concentration of DMSO was 2% in the YEPD medium. […] The serial dilutions of compounds were dispensed into test tubes with 1 ml of YEPD or YEPD+S to make final concentrations of 200, 100, 50, 25, 12.5, 6.26, 3.125, 1.6, 0.8 and 0.4 μg/ml. The tested yeast strains were previously grown in YEPD, YEPD+S, YES or YES+S agar plates at 30°C for 48 h. For inoculation of YEPD or YEPD+S macro test tubes a suspension of tested fungus was produced with 10^5 cfu/ml (cfu - colony forming unit). 10 μl of suspension was used for inoculation of each tube. After 48 h incubation at 30°C the tubes were checked. The MIC value is the lowest concentration of the tested compound that could inhibit the fungal growth and the medium remained clear. From each tube 10 μl culture was plated on YEPD agar medium to check the contamination. The MIC tests were carried out in three parallels. The screening of the first generation of isochromanones was carried out in YEPD and YEPD+S media (1E-16E). The fungal strains analyzed are: C. albicans wild-type ATCC 26555, SC5314 and ATCC 90028, S. cerevisiae wild-type CVX12-3A and pbr1-1 mutant, and S. pombe wild-type (972h^–), pbr1-8 mutant and pbr1-6 mutant. The bold numbers in Tables 4–6 indicate the more efficient compounds. […] The weak or moderate efficacy against the C. albicans wild-type strains was observed by some substances (3E, 4Z, 5Z, 10E, 15, and 16E). The efficiency toward the S. pombe pbr1-6 mutant strain was the highest inhibitory activity, except 7E, 11E, 12 and 14E. […] As regards the other S. pombe pbr1-8 mutant strain, the antifungal activity of the tested compounds was slightly lower, but the substances with the best activity are partly identical to the best compounds mentioned with pbr1-6, (i.e., 1E, 3E, 4Z, 5Z).

[2] = system: T1, S. cerevisiae wild-type CVX12-3A; design: species or system whole yeast cells; macro tube broth dilution MIC in YEPD at 30 C, visual clearness of medium; conditions: Saccharomyces cerevisiae, 48 h, read-out: MIC
T1 construct: CVX12-3A
Protocol: as §1

[3] = system: T2, S. pombe wild-type 972 h-; design: species or system whole yeast cells; macro tube broth dilution MIC in YEPD at 30 C, visual clearness of medium; conditions: Schizosaccharomyces pombe, 48 h, read-out: MIC
T2 construct: 972 h-
Protocol: as §1

[4] = system: C. albicans wild-type; design: species or system whole yeast cells; macro tube broth dilution MIC in YEPD at 30 C, visual clearness of medium; conditions: Candida albicans, 48 h, read-out: MIC; remark: listed apart in the source
Protocol: as §1

[5] = system: C. albicans wild-type; design: species or system whole yeast cells; macro tube broth dilution MIC in YEPD at 30 C, visual clearness of medium; conditions: Candida albicans, 48 h, read-out: MIC; remark: listed apart in the source
Protocol: as §1

[6] = system: C. albicans wild-type; design: species or system whole yeast cells; micro-culture broth dilution MIC in YES at 30 C, turbidity, complete growth inhibition; conditions: Candida albicans, read-out: MIC
Protocol: (§2) Standard YEPD (Yeast Extract, Peptone, Dextrose) ([Sherman, 1990]), YEPD+S (YEPD with 1.2M sorbitol), YES (Yeast Extract, Dextrose and Supplements of Adenine, Histidine, Leucine, Uracil and Lysine) ([Alfa et al., 1993]) and YES+S (YES with 1.2 M sorbitol) ([Ribas et al., 1991]; [Ishiguro et al., 1997]), media were used for determination of MIC values of the tested compounds. A stock solution of 10 mg/ml of each tested compounds was prepared in DMSO and serial dilutions in DMSO were prepared. The final concentration of DMSO was 2% in the YEPD medium. […] The serial dilutions of compounds were dispensed into test tubes with 1 ml of YEPD or YEPD+S to make final concentrations of 200, 100, 50, 25, 12.5, 6.26, 3.125, 1.6, 0.8 and 0.4 μg/ml. The tested yeast strains were previously grown in YEPD, YEPD+S, YES or YES+S agar plates at 30°C for 48 h. Micro-culture assays of large numbers of samples were analyzed as described) ([Martins et al., 2011]). Essentially early log-phase cells were grown in YEPD, YEPD+S, YES or YES+S (1.2 M sorbitol) medium at 30°C, and diluted to cell density of 4 X 10^6 cells/ml in YEPD, YEPD+S, YES or YES+S medium and aliquots of 100 μl were dispensed into each small test tube (3 ml test tube size). Then, another 100 μl of YEPD, YEPD+S, YES or YES+S with the corresponding dilution of each compound at 2X concentration (4% DMSO) was added. The final volume was 200 μl, with the cells diluted to of 2 X 10^6 cells/ml and each compound diluted to 1X final concentration, containing increasing concentrations of antifungal (0, 1, 2, 5, 10, 20, 50, 100 and 200 μg/ml) or an equivalent volume of solvent (2% DMSO). The cells were grown at 30°C in an orbital roller and turbidity was analyzed after 24 and 48 h of incubation. The MIC was determined as the minimal concentration of tested compound that produced complete cell growth inhibition and kept the medium clear. The MIC values were calculated from at least three independent experiments. Next, the first generation of isochromanones (1E-16E) was also screened in YES medium (Table 5) and exerted a weaker antifungal potency than in YEPD medium and also than the second family of isochromanones in YES medium (17E-30E) (Table 6). The strains are partly different from the previously mentioned ones (Tables 5, 6) analyzing two wild type C. albicans strains because they behaved similarly in YEPD. It is remarkable that there was no effect against either the C. albicans, the S. cerevisiae, or the S. pombe wild-type strains, except with 30E.

[7] = system: T1, S. cerevisiae wild-type CVX12-3A; design: species or system whole yeast cells; micro-culture broth dilution MIC in YES at 30 C, turbidity, complete growth inhibition; conditions: Saccharomyces cerevisiae, read-out: MIC
Protocol: as §2

[8] = system: T2, S. pombe wild-type 972 h-; design: species or system whole yeast cells; micro-culture broth dilution MIC in YES at 30 C, turbidity, complete growth inhibition; conditions: Schizosaccharomyces pombe, read-out: MIC
Protocol: as §2

[9] = system: C. albicans wild-type; design: species or system whole yeast cells; micro-culture broth dilution MIC in YES at 30 C, turbidity, complete growth inhibition; conditions: Candida albicans, read-out: MIC; remark: listed apart in the source
Protocol: as §2

## O=C1OCc2ccccc2/C1=C\c1ccccc1 [1E]
[1]
  MIC: 200 µg/mL (≈ 846 µM)
[2]
  MIC: 100 µg/mL (≈ 423 µM)
[3]
  MIC: 25 µg/mL (≈ 106 µM)
[4]
  MIC: 200 µg/mL (≈ 846 µM)
[5]
  MIC: 200 µg/mL (≈ 846 µM)
[6]
  MIC: > 200 µg/mL
[7]
  MIC: > 200 µg/mL
[8]
  MIC: > 200 µg/mL

## O=C1OCc2ccccc2/C1=C/c1ccccc1 [1Z]
[1]
  MIC: > 200 µg/mL
[2]
  MIC: 100 µg/mL (≈ 423 µM)
[3]
  MIC: 50 µg/mL (≈ 212 µM)
[4]
  MIC: > 200 µg/mL
[5]
  MIC: 200 µg/mL (≈ 846 µM)
[6]
  MIC: > 200 µg/mL
[7]
  MIC: > 200 µg/mL
[8]
  MIC: > 200 µg/mL

## O=C1OCc2ccccc2/C1=C\c1ccc(C(=O)O)cc1 [2E]
[1]
  MIC: 200 µg/mL (≈ 714 µM)
[2]
  MIC: 100 µg/mL (≈ 357 µM)
[3]
  MIC: 50 µg/mL (≈ 178 µM)
[4]
  MIC: 200 µg/mL (≈ 714 µM)
[5]
  MIC: 200 µg/mL (≈ 714 µM)
[6]
  MIC: > 200 µg/mL
[7]
  MIC: > 200 µg/mL
[8]
  MIC: > 200 µg/mL

## O=C1OCc2ccccc2/C1=C\c1cccnc1 [3E]
[1]
  MIC: 100 µg/mL (≈ 421 µM)
[2]
  MIC: 50 µg/mL (≈ 211 µM)
[3]
  MIC: 25 µg/mL (≈ 105 µM)
[4]
  MIC: 100 µg/mL (≈ 421 µM)
[5]
  MIC: 50 µg/mL (≈ 211 µM)
[6]
  MIC: > 200 µg/mL
[7]
  MIC: 200 µg/mL (≈ 843 µM)
[8]
  MIC: 200 µg/mL (≈ 843 µM)

## Cn1cccc1/C=C1/C(=O)OCc2ccccc21 [4E]
[1]
  MIC: 200 µg/mL (≈ 836 µM)
[2]
  MIC: 100 µg/mL (≈ 418 µM)
[3]
  MIC: 50 µg/mL (≈ 209 µM)
[4]
  MIC: 200 µg/mL (≈ 836 µM)
[5]
  MIC: 200 µg/mL (≈ 836 µM)
[6]
  MIC: > 200 µg/mL
[7]
  MIC: > 200 µg/mL
[8]
  MIC: > 200 µg/mL

## Cn1cccc1/C=C1\C(=O)OCc2ccccc21 [4Z]
[1]
  MIC: 25 µg/mL (≈ 104 µM)
[2]
  MIC: 12.5 µg/mL (≈ 52.2 µM)
[3]
  MIC: 25 µg/mL (≈ 104 µM)
[4]
  MIC: 50 µg/mL (≈ 209 µM)
[5]
  MIC: 12.5 µg/mL (≈ 52.2 µM)
[6]
  MIC: > 200 µg/mL
[7]
  MIC: > 200 µg/mL
[8]
  MIC: > 200 µg/mL

## O=C1OCc2ccccc2/C1=C/c1ccc[nH]1 [5Z]
[1]
  MIC: 100 µg/mL (≈ 444 µM)
[2]
  MIC: 100 µg/mL (≈ 444 µM)
[3]
  MIC: 25 µg/mL (≈ 111 µM)
[4]
  MIC: 100 µg/mL (≈ 444 µM)
[5]
  MIC: 200 µg/mL (≈ 888 µM)
[6]
  MIC: > 200 µg/mL
[7]
  MIC: > 200 µg/mL
[8]
  MIC: > 200 µg/mL

## O=C1OCc2ccccc2/C1=C\c1ccccc1Cl [8E]
[1]
  MIC: > 200 µg/mL
[2]
  MIC: 100 µg/mL (≈ 369 µM)
[3]
  MIC: 50 µg/mL (≈ 185 µM)
[4]
  MIC: > 200 µg/mL
[5]
  MIC: 200 µg/mL (≈ 739 µM)
[6]
  MIC: > 200 µg/mL
[7]
  MIC: > 200 µg/mL
[8]
  MIC: > 200 µg/mL

## COc1cccc(/C=C2/C(=O)OCc3ccccc32)c1OC [9E]
[1]
  MIC: 100 µg/mL (≈ 337 µM)
[2]
  MIC: 100 µg/mL (≈ 337 µM)
[3]
  MIC: 50 µg/mL (≈ 169 µM)
[4]
  MIC: 100 µg/mL (≈ 337 µM)
[5]
  MIC: 100 µg/mL (≈ 337 µM)
[6]
  MIC: > 200 µg/mL
[7]
  MIC: > 200 µg/mL
[8]
  MIC: > 200 µg/mL

## O=C1OCc2ccccc2/C1=C\c1ccccc1[N+](=O)[O-] [11E]
[1]
  MIC: > 200 µg/mL
[2]
  MIC: 200 µg/mL (≈ 711 µM)
[3]
  MIC: 100 µg/mL (≈ 356 µM)
[4]
  MIC: > 200 µg/mL
[5]
  MIC: > 200 µg/mL
[6]
  MIC: > 200 µg/mL
[7]
  MIC: > 200 µg/mL
[8]
  MIC: > 200 µg/mL

## O=C1OCc2ccccc2/C1=C\c1ccc([N+](=O)[O-])cc1 [17E, E-4-[(4′-Nitrophenyl)Methylene]-3-Isochromanone]
[6]
  MIC: > 200 µg/mL
[7]
  MIC: 200 µg/mL (≈ 711 µM)
[8]
  MIC: > 200 µg/mL
[9]
  MIC: > 200 µg/mL

From paper PMC6689975, “Novel Cell Wall Antifungals Reveal a Special Synergistic Activity in pbr1 Mutants Resistant to the Glucan Synthesis Antifungals Papulacandins and Echinocandins” (Frontiers in Microbiology, 2019)
